Data on 22 molecules can be found in ChEMBL document CHEMBL3286227, “Guanidinium-based derivatives: searching for new kinase inhibitors” (Eur J Med Chem, 2014).

Broadly, the IC50 is the concentration that gives 50% inhibition. The term inhibition denotes the relative decrease from the control value, in per cent.

The target in experiment [1] is Glycogen synthase kinase-3 beta (Homo sapiens, UniProt P49841). Kind of experiment: Inhibition of human recombinant GSK-3 beta after 30 mins by luminescence assay.
Experiment [2] has as its target Casein kinase I isoform delta (Homo sapiens, UniProt P48730). Nature of the experiment: Inhibition of human recombinant casein kinase-1 delta using casein as substrate after 60 mins by kinase-glo luminescence assay. In general terms: Kinase-Glo measures the ATP left after a reaction by luminescence.
The next experiment deals with HL-60. Kind of experiment: Cytotoxicity against human HL60 cells after 72 hrs by Alamar Blue assay. Type of experiment: functional, cell-based. The conditions noted are these: HL-60, 72 h. A general note: Resazurin is reduced to fluorescent resorufin, in cell work by metabolically active cells.
For experiment [3], the target named is Mitogen-activated protein kinase; ERK1/ERK2 (Homo sapiens) (UniProt P27361+P28482). Kind of experiment: Inhibition of ERK1/2 kinase in human A431 cells using EGF as substrate at 10 uM incubated for 5 mins prior to substrate addition measured after 10 mins by fluorescence assay relative to control. Type of experiment: cell-based. The conditions noted are these: A-431.

The next experiment deals with HUVEC. Kind of experiment: Inhibition of VEGFR in HUVEC using […] as substrate at 10 uM incubated for 20 mins prior to substrate addition relative to control. In kind it is cell-based. The conditions noted are these: Homo sapiens.
Experiment [4] has as its target Serine/threonine-protein kinase B-raf (Homo sapiens) (UniProt P15056). Nature of the experiment: Competitive binding to B-RAF kinase (unknown origin) at 100 nM to 100 uM after 60 to 120 mins by FRET analysis.
Experiment [5] addresses Serine/threonine-protein kinase RAF and Dual specificity mitogen-activated protein kinase kinase 1 (Raf/MEK) (Homo sapiens) (UniProt P04049+Q02750). Kind of experiment: Inhibition of RAF-1/MEK1 (unknown origin) assessed as at 10 uM after 5 mins by fluorescence assay relative to control. Type of experiment: protein assay.
Experiment [6] addresses MAP kinase p38 (Homo sapiens) (UniProt O15264+Q15759+Q16539+P53778). Nature of the experiment: Inhibition of P38 MAP kinase in human A431 cells using TNF-alpha as substrate at 10 uM incubated for 5 mins prior to substrate addition measured after 10 mins by fluorescence assay relative to control. In kind it is cell-based. The conditions noted are these: A-431.

Active and inactive are the calls of the source. The calls are words filed in the database; no cut-off is given here.

Sequence of Serine/threonine-protein kinase RAF and Dual specificity mitogen-activated protein kinase kinase 1 (Raf/MEK) (Homo sapiens) (P04049 whole entry, looked up): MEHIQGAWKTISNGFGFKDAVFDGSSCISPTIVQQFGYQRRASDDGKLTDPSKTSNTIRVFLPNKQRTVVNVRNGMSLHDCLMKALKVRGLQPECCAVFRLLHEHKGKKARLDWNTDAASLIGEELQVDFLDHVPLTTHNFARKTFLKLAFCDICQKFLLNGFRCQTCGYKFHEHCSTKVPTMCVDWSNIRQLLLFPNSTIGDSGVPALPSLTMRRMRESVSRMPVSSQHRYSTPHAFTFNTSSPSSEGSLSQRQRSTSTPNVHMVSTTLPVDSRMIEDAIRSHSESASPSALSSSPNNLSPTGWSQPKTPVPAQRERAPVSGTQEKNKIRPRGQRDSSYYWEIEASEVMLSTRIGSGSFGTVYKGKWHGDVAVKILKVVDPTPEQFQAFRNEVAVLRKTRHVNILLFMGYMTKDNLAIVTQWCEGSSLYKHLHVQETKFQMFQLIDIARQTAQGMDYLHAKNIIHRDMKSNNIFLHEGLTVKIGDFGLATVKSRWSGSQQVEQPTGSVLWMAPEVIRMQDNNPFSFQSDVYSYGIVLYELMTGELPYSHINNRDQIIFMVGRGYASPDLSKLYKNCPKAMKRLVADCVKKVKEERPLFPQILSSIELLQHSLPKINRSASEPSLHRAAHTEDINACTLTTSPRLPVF
Sequence of Serine/threonine-protein kinase RAF and Dual specificity mitogen-activated protein kinase kinase 1 (Raf/MEK) (Homo sapiens) (Q02750 whole entry, looked up): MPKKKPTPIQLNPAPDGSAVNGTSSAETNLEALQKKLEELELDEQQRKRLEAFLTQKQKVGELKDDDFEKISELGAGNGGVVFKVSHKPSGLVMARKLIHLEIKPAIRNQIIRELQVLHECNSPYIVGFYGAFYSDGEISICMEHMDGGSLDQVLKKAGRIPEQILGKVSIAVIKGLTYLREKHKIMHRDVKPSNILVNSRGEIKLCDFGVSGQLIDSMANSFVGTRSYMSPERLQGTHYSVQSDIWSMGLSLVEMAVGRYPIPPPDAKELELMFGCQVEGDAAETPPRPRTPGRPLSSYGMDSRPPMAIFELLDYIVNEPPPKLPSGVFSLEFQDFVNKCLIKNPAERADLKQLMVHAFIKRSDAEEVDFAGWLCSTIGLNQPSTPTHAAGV
Sequence of Casein kinase I isoform delta (P48730 whole entry, canonical isoform): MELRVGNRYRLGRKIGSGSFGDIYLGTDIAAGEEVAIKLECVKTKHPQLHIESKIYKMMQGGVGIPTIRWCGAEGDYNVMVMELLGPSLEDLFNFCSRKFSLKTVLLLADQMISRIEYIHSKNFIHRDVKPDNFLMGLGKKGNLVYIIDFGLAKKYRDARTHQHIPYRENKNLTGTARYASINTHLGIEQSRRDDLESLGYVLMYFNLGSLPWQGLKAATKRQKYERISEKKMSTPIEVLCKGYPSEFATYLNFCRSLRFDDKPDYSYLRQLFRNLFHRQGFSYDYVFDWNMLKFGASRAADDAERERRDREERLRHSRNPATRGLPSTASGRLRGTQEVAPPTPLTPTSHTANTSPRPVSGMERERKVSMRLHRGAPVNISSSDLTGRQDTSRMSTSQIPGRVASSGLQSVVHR
Sequence of Mitogen-activated protein kinase; ERK1/ERK2 (Homo sapiens) (P27361 whole entry, looked up): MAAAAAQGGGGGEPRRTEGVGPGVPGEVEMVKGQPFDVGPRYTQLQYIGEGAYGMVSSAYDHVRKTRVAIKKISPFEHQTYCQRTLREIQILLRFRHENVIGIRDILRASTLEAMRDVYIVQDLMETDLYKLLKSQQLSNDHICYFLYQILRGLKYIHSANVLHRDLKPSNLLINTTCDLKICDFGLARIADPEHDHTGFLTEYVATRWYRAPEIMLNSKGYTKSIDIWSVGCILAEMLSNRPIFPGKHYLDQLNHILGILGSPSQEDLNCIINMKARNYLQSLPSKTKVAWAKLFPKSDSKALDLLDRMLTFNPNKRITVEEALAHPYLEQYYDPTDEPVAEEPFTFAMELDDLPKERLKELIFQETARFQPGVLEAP
Sequence of Mitogen-activated protein kinase; ERK1/ERK2 (Homo sapiens) (P28482 whole entry, looked up): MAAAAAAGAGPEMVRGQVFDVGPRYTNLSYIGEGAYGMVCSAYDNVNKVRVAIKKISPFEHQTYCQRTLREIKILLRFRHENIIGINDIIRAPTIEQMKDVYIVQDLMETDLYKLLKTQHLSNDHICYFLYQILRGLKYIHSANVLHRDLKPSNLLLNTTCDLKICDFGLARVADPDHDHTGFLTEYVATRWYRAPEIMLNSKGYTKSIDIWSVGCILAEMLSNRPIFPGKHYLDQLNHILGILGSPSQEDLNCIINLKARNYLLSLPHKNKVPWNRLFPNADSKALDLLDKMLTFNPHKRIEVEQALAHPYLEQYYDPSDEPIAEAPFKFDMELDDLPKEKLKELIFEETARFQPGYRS
Sequence of Glycogen synthase kinase-3 beta (P49841 whole entry, canonical isoform): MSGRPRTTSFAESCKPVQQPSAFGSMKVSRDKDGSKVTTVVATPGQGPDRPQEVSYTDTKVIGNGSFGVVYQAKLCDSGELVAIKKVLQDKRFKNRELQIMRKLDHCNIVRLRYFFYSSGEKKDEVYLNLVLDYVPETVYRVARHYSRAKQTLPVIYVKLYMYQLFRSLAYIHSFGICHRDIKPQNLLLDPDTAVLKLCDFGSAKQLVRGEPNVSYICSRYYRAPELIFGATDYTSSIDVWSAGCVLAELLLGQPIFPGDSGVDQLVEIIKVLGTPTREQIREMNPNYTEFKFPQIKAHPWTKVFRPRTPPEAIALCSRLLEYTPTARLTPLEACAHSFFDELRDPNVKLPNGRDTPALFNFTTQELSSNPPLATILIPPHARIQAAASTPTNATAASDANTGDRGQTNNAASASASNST
Sequence of Serine/threonine-protein kinase B-raf (Homo sapiens) (P15056 whole entry): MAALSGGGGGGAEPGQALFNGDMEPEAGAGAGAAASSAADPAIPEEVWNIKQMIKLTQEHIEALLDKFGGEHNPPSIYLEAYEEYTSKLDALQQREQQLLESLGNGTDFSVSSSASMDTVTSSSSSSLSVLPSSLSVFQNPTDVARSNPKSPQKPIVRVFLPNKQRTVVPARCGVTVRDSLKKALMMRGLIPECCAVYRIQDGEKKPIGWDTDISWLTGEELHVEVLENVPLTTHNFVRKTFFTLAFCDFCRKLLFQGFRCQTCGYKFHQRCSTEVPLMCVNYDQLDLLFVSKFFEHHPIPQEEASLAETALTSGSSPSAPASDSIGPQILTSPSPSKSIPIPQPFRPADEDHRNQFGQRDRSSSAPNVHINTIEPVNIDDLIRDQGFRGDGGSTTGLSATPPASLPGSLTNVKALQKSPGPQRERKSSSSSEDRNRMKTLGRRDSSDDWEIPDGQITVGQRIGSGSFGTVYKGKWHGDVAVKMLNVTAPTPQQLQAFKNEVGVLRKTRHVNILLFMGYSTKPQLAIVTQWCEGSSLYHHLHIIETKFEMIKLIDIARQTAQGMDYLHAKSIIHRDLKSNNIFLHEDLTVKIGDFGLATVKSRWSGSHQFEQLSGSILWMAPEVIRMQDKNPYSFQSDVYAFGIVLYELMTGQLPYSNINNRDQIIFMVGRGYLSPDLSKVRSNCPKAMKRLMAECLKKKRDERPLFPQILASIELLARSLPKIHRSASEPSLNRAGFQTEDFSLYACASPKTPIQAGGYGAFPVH

Turning to `c1cc(Cc2ccc(NC3=NCCN3)cc2)cc(NC2=NCCN2)c1`, the IC50 (in experiment [1]; in experiment [2]; in the experiment with HL-60) was > 100 µM in each case.
Regarding `N=C(N)Nc1cccc(C(=O)c2ccc(NC(=N)Nc3ccccc3)cc2)c1`, the IC50 (in experiment [1]; in experiment [2]; in the experiment on HL-60) was > 100 µM throughout.
As to `N=C(N)Nc1ccc(Cc2cccc(NC(=N)N)c2)cc1`, the IC50 in experiment [1] is > 100 µM; in experiment [2], > 100 µM; in the experiment on HL-60, 35.1 µM.
On to `CC(=O)Nc1cccc(Nc2ccc(NC(=N)Nc3ccc(Cl)c(C(F)(F)F)c3)cc2)c1`, for which the IC50 in experiment [1] is > 100 µM; in experiment [2], > 100 µM; in the experiment with HL-60 it was 3.96 µM. Further, the inhibition turned out to be 12% in experiment [3], 1% in the experiment with HUVEC, 38% in experiment [5] and 12% in experiment [6]. Besides, in experiment [4], the outcome was inactive.
For the molecule `N=C(N)Nc1cccc(C(=O)c2ccc(NC(=N)Nc3ccc(Cl)c(C(F)(F)F)c3)cc2)c1`, the half-maximal inhibitory concentration (IC50) in experiment [1] was > 100 µM; in experiment [2], > 100 µM; in the experiment with HL-60, 22.3 µM. Moreover, the inhibition in experiment [3] came out at 21%; in the experiment on HUVEC it was 0%; in experiment [5], 96%; in experiment [6], 20%. In addition, in experiment [4], the outcome was inactive.
Take `N=C(N)Nc1cccc(Cc2ccc(NC(=N)Nc3ccccc3)cc2)c1`: the IC50 (in experiment [1]; in experiment [2]; in the experiment on HL-60) was > 100 µM each time.
Consider `N=C(N)Nc1cccc(Oc2ccc(NC(=N)Nc3ccc(Cl)c(C(F)(F)F)c3)cc2)c1`, for which the results for the IC50 (in experiment [1]; in experiment [2]; in the experiment on HL-60) were > 100 µM, > 100 µM and 24.5 µM, respectively. Also, the inhibition in experiment [3] was -7%; with HUVEC, 0%; in experiment [5], 96%; in experiment [6], 21%. Also, the result in experiment [4] was inactive.
For the molecule `N=C(N)Nc1cccc(Nc2ccc(NC(=N)Nc3ccccc3)cc2)c1`, the IC50 (in experiment [1]; in experiment [2]; in the experiment with HL-60) was > 100 µM in each case.
For the molecule `N=C(N)Nc1cccc(Oc2ccc(NC(=N)Nc3ccccc3)cc2)c1`, the IC50 (in experiment [1]; in experiment [2]; with HL-60) was > 100 µM throughout. Moreover, the inhibition in the experiment with HUVEC is -1%; in experiment [5], 4%; in experiment [6], 1%.
`N=C(N)Nc1ccc(Oc2ccc(NC(=N)N)cc2)cc1`: the IC50 in experiment [1] is > 100 µM; in experiment [2], > 100 µM; with HL-60 it was 88.4 µM. Further, the inhibition is 6% in experiment [3], 7% in the experiment with HUVEC, 2% in experiment [5] and -1% in experiment [6].
In the case of `N=C(N)Nc1ccc(Oc2cccc(NC(=N)Nc3ccccc3)c2)cc1`, the IC50 (in experiment [1]; in experiment [2]; in the experiment on HL-60) was > 100 µM throughout.
With `N=C(N)Nc1ccc(Oc2cccc(NC(=N)N)c2)cc1`, the IC50 in experiment [1] was > 100 µM; in experiment [2], > 100 µM; in the experiment on HL-60, 36.2 µM. Further, the inhibition in experiment [3] is -4%; in the experiment with HUVEC, -1%; in experiment [5], 22%; in experiment [6], -1%.
In the experiment on HL-60, `CNC(=O)c1cc(Oc2ccc(NC(=O)Nc3ccc(Cl)c(C(F)(F)F)c3)cc2)ccn1` [SORAFENIB] came in with an IC50 of 1.68 µM.
As for `N=C(N)Nc1cccc(Cc2ccc(NC(=N)Nc3ccc(Cl)c(C(F)(F)F)c3)cc2)c1`, the IC50 in experiment [1] is > 100 µM; in experiment [2], > 100 µM; with HL-60 it was 15.9 µM. The inhibition in experiment [3] was 17%; in the experiment on HUVEC it was 17%; in experiment [5], 99%; in experiment [6] it was -7%. Moreover, the result in experiment [4] was inactive.
As to `N=C(N)Nc1ccc(Cc2cccc(NC(=N)Nc3ccccc3)c2)cc1`, the IC50 (in experiment [1]; in experiment [2]; in the experiment on HL-60) was > 100 µM throughout.
Consider `c1cc(NC2=NCCN2)cc(Oc2ccc(NC3=NCCN3)cc2)c1`, for which the IC50 (in experiment [1]; in experiment [2]; in the experiment on HL-60) was > 100 µM each time.
Regarding `N=C(N)Nc1ccc(Cc2cccc(NC(=N)Nc3ccc(Cl)c(C(F)(F)F)c3)c2)cc1`, the figures for the half-inhibitory concentration (IC50) (in experiment [1]; in experiment [2]; in the experiment with HL-60) were > 100 µM, > 100 µM and 16.6 µM, respectively. Further, the outcome in experiment [4] was inactive.
With `N=C(N)Nc1ccc(Nc2cccc(NC(=N)N)c2)cc1`, the results for the IC50 (in experiment [1]; in experiment [2]; with HL-60) were > 100 µM, > 100 µM and 67.7 µM, respectively. Moreover, the inhibition was -6% in the experiment with HUVEC, 86% in experiment [5] and 4% in experiment [6].
`O=C(c1ccc(NC2=NCCN2)cc1)c1cccc(NC2=NCCN2)c1`: the concentration for half-maximal inhibition (IC50) (in experiment [1]; in experiment [2]; in the experiment on HL-60) was > 100 µM throughout.
Turning to `N=C(N)Nc1cccc(Nc2ccc(NC(=N)Nc3ccc(Cl)c(C(F)(F)F)c3)cc2)c1`, the IC50 in experiment [1] was > 100 µM; in experiment [2], > 100 µM; in the experiment with HL-60 it was 36.6 µM. In addition, the inhibition was -3% with HUVEC, 74% in experiment [5] and 12% in experiment [6]. In experiment [4], the outcome was inactive.
Regarding `N=C(N)Nc1ccc(C(=O)c2cccc(NC(=N)N)c2)cc1`, the IC50 in experiment [1] is > 100 µM; in experiment [2] it was > 100 µM; in the experiment with HL-60, 141 µM.
For `CC(=O)Nc1cccc(Oc2ccc(NC(=N)Nc3ccc(Cl)c(C(F)(F)F)c3)cc2)c1`, the concentration for half-maximal inhibition (IC50) in experiment [1] was > 100 µM; in experiment [2], > 100 µM; with HL-60, 9.11 µM. In addition, the inhibition was determined as 8% in experiment [3], 35% in experiment [5] and 0% in experiment [6]. The outcome in experiment [4] was inactive.
